Measurements taken from patent US20150065717A1, “NIPECOTIC ACID DERIVATIVE AND USE THEREOF FOR MEDICAL PURPOSES” (Toray Industries, Inc., priority 2012, published 2015).

Molecular target: T1, recombinant human sEH (Homo sapiens, UniProt P34913)
T1 construct: purchased Cayman
T1 sequence (P34913 1-555): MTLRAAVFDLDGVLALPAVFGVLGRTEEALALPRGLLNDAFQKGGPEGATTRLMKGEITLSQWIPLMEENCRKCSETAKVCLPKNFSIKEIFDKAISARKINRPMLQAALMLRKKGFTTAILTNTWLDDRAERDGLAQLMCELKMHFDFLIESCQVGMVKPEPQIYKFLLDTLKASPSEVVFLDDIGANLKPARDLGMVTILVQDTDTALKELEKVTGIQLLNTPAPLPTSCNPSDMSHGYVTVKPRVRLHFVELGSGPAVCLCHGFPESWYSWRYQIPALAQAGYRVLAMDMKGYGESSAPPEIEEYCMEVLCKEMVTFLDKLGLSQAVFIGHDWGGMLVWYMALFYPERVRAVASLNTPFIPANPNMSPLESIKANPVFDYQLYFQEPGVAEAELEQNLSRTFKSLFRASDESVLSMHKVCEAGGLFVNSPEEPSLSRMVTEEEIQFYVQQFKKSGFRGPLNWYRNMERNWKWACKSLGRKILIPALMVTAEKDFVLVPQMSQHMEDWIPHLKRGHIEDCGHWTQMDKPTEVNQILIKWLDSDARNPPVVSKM
Experiment: In vitro evaluation test for sEH inhibitory activity
Format: biochemical
Conditions: recombinant human sEH 0.026 μg/mL, fluorescent substrate 6.25 μmol/L, room temperature
Method: According to the method described in a known document (Analytical Biochemistry, 2005, vol. 343, p. 66-75), the sEH inhibitory activity of each nipecotic acid derivative (I) or a pharmaceutically acceptable salt thereof was evaluated using human sEH.
A recombinant human sEH (final concentration, 0.026 μg/mL; Cayman) was incubated with each test compound in 25 mM Bis-Tris-HCl buffer (pH 7.0) supplemented with 0.1 mg/mL BSA at room temperature for 30 minutes. Thereafter, cyano(6-methoxynaphthalen-2-yl)methyl 2-(3-phenyloxiran-2-yl)acetate (final concentration, 6.25 μmol/L; Cayman) was added thereto as a fluorescent substrate, and the resulting mixture was incubated at room temperature for 20 minutes. The reaction was then stopped by addition of ZnSO4 (final concentration, 0.2 mol/L), and the fluorescence intensity was measured (Fusion α (Packard); Excitation: 330 nm, Emission:485 nm).
The fluorescence intensity observed with addition of neither sEH nor a test compound was regarded as the sEH enzymatic reaction rate of 0%, and the fluorescence intensity observed with addition of sEH but without addition of a test compound was regarded as the sEH enzymatic reaction rate of 100%. From the obtained fluorescence intensity, the sEH enzymatic reaction rate of each test compound was calculated to determine IC50.

| IC50 [nM] | Compound |
| --- | --- |
| 0.9 | CC[C@@H](NC(C)=O)C(=O)N1CCC[C@@H](C(=O)NCc2ccc(C#N)cc2OC(F)(F)F)C1 [Example Compound 21, (R)-1-((R)-2-acetamidobutanoyl)-N-(4-cyano-2-(trifluoromethoxy)benzyl)piperidine-3-carboxamide] |
| 1 | CS(=O)(=O)NC1(C(=O)N2CCC[C@@H](C(=O)NCc3ccc(C#N)cc3OC(F)(F)F)C2)CCC1 [Example Compound 5, (R)—N-(4-cyano-2-(trifluoromethoxy)benzyl)-1-(1-(methylsulfonamido)cyclobutanecarbonyl)piperidine-3-carboxamide] |
| 1.5 | CC(C)(NS(C)(=O)=O)C(=O)N1CCC[C@@H](C(=O)NCc2ccc(C(N)=O)cc2OC(F)(F)F)C1 [Example Compound 14, (R)—N-(4-carbamoyl-2-(trifluoromethoxy)benzyl)-1-(2-methyl-2-(methylsulfonamido)propanoyl)piperidine-3-carboxamide] |
| 3.5 | C[C@@H](O)C(=O)N1CCC[C@@H](C(=O)NCc2ccc(C#N)cc2OC(F)(F)F)C1 [Example Compound 42, (R)—N-(4-cyano-2-(trifluoromethoxy)benzyl)-1-((R)-2-hydroxypropanoyl)piperidine-3-carboxamide] |
| 1.3 | CC(C)(CO)C(=O)N1CCC[C@@H](C(=O)NCc2ccc(C#N)cc2OC(F)(F)F)C1 [Example Compound 19, (R)—N-(4-cyano-2-(trifluoromethoxy)benzyl)-1-(3-hydroxy-2,2-dimethylpropanoyl)piperidine-3-carboxamide] |
| > 20 | O=C(Nc1ccc(C(F)(F)F)cn1)[C@@H]1CCCN(C(=O)C2(O)CCCCC2)C1 [Comparative Example Compound 1, (R)-1-(1-hydroxycyclohexanecarbonyl)-N-(5-(trifluoromethyl)pyridin-2-yl)piperidine-3-carboxamide, reference compound] |
| > 30 | CC(=O)NCC(=O)N1CCC[C@@H](C(=O)NCc2ccc(C#N)cc2OC(F)(F)F)C1 [Comparative Example Compound 2, (R)-1-(2-acetamidoacetyl)-N-(4-cyano-2-(trifluoromethoxy)benzyl)piperidine-3-carboxamide, reference compound] |
| 5.8 | CC(C)C(=O)NC1(C(=O)N2CCC[C@@H](C(=O)NCc3ccc(C#N)cc3OC(F)(F)F)C2)CC1 [Example Compound 26, (R)—N-(4-cyano-2-(trifluoromethoxy)benzyl)-1-(1-isobutylamidocyclopropanecarbonyl)piperidine-3-carboxamide] |
| 0.7 | CC(=O)N[C@@H](C(=O)N1CCC[C@@H](C(=O)NCc2ccc(Cl)cc2Cl)C1)C(C)(C)O [Example Compound 39] |
| 1.2 | CC[C@@H](O)C(=O)N1CCC[C@@H](C(=O)NCc2ccc(C#N)cc2OC(F)(F)F)C1 [Example Compound 43, (R)—N-(4-cyano-2-(trifluoromethoxy)benzyl)-1-((R)-2-hydroxybutanoyl)piperidine-3-carboxamide] |
| 1 | CC(C)(O)[C@@H](NS(C)(=O)=O)C(=O)N1CCC[C@@H](C(=O)NCc2ccc(C#N)cc2OC(F)(F)F)C1 [Example Compound 32, (R)—N-(4-cyano-2-(trifluoromethoxy)benzyl)-1-((R)-3-hydroxy-3-methyl-2-(methylsulfonamido)butanoyl)piperidine-3-carboxamide] |
| 1.1 | CC(C)(O)[C@@H](NS(C)(=O)=O)C(=O)N1CCC[C@@H](C(=O)NCc2ccc(Cl)cc2Cl)C1 [Example Compound 41, (R)—N-(2,4-dichlorobenzyl)-1-((R)-3-hydroxy-3-methyl-2-(methylsulfonamido)butanoyl)piperidine-3-carboxamide] |
| 1.9 | CS(=O)(=O)NC1(C(=O)N2CCC[C@@H](C(=O)NCc3ccc(C(N)=O)cc3OC(F)(F)F)C2)CC1 [Example Compound 15] |
